Test in all cases: Fluorescence dose-response of purified binding-pocket-engineered sensors (0.75 uM) in 100 mM Tris-HCl pH 7.5, room temperature, 1 mM ATP, 2.5 mM MgCl2, excitation 460 or 480 nm, emission 510 nm; logistic five-parameter fit.
Common to all, as to assay type: biochemical
Details in all cases: n = 3

For one assay, the target named is T1, GECFINDER-Leu1 (Aneurinibacillus migulanus, UniProt P0C061, A301G/T278M).
T1 construct: gene grsA; GrsA-PheA-PCP
As for the experimental part:
(§1) Fig. 4 Engineering ligand specificity of GrsA-PheA for generating […]s. a The selectivity-conferring code of Phe and Leu A domains. b–f Dose–response curve of purified […]s with increasing concentrations of ligands in 100 mM Tris-HCl buffer (pH=7.5). All data shown are means ± S.D. (n = 3 biologically independent samples). g A series of […] reactions was tested to show the […]’s specificity with 20 proteinogenic amino acids. The values on the heatmap represent the ΔF/F0 value normalized to each […]’s maximal ΔF/F0 value ((ΔF/F0)/maximal ΔF/F0). The concentrations of 20 amino acids were 100 μM. The color indicates the average value of three independent biological replicates after 15 min. All data shown are means ± S.D. (n = 3 biologically independent samples). Source data are provided as a Source data file.
(§2) The study conducted dose–response curve, substrate specificity, and fluorescent spectrum analyses in 100-mM Tris buffer (pH = 7.5), while pH stability experiments were performed in 100-mM Tris buffer at three different pH values (6.5, 7.5, and 8.5) at room temperature. […] protein at a concentration of 0.75 μM, various small molecule concentrations, 1 mM ATP, and 2.5 mM MgCl2 were used in the experiments. Fluorescent signals were detected using a Microplate Reader (Synergy H4, Bio Tek) at an excitation/emission wavelength of 460 nm/510 nm or 480 nm/510 nm. The dose-response curve was determined immediately after the addition of the analyte. The total duration of the measurement was 15 min, with readings taken at one-minute intervals. The dose-response curve was plotted using the fluorescence values obtained after achieving stability in the fluorescence signal. The dose-response curves were fitted using the logistic model LOGISTIC5 available in Origin 2021, which could provide a more adequate fit to asymmetric dose-response data[62],[63]. Excitation spectra were scanned from 300 to 540 nm with a step size of 5 nm, and the emission wavelength was set to 560 nm. Emission spectra were scanned from 470 to 700 nm with a step size of 5 nm, and the excitation wavelength was set to 450 nm. The thermal stability of […] was analyzed using the UNcle multifunctional protein stability analysis system. Measurements were performed in 20 mM MOPS buffer with 2 mM DTT at a sample concentration of 1 mg/mL. Absolute fluorescence quantum yields were measured using an absolute photoluminescence quantum yield spectrometer (FS5, Edinburgh).

The target in the next assay is T2, GECFINDER-Leu2 (Aneurinibacillus migulanus, UniProt P0C061, A301G/I277L/T278L).
T2 construct: gene grsA
The protocol: as §1, §2

Another assay has as its target T3, GECFINDER-Leu3 (Aneurinibacillus migulanus, UniProt P0C061, A301G/S447N/T278L).
T3 construct: gene grsA
As for the experimental part:
as §1, §2

The next assay addresses T4, GECFINDER-Leu4 (Aneurinibacillus migulanus, UniProt P0C061, A301G/I277L/S447N/T278L).
T4 construct: gene grsA
The protocol: as §1, §2

By EC50 is commonly meant the concentration giving half of the maximal effect.

T4 sequence (P0C061 1-617 I277L/T278L/A301G/S447N): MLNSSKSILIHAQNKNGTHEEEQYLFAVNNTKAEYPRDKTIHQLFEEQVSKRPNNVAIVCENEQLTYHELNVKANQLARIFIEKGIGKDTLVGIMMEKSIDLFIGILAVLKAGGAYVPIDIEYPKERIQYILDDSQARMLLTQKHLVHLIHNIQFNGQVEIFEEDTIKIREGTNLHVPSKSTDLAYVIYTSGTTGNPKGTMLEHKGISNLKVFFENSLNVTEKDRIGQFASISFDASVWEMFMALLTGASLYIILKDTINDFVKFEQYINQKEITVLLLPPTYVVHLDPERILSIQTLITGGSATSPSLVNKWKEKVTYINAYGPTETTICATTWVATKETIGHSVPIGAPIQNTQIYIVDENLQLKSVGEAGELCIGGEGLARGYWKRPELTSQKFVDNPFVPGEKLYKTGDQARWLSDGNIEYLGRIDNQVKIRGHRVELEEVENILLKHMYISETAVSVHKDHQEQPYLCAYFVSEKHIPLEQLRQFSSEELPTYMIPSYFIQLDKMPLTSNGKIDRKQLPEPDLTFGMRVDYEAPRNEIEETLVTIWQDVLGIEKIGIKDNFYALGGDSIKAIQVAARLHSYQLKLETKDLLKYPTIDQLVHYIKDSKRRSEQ
T1 sequence (P0C061 1-617 T278M/A301G): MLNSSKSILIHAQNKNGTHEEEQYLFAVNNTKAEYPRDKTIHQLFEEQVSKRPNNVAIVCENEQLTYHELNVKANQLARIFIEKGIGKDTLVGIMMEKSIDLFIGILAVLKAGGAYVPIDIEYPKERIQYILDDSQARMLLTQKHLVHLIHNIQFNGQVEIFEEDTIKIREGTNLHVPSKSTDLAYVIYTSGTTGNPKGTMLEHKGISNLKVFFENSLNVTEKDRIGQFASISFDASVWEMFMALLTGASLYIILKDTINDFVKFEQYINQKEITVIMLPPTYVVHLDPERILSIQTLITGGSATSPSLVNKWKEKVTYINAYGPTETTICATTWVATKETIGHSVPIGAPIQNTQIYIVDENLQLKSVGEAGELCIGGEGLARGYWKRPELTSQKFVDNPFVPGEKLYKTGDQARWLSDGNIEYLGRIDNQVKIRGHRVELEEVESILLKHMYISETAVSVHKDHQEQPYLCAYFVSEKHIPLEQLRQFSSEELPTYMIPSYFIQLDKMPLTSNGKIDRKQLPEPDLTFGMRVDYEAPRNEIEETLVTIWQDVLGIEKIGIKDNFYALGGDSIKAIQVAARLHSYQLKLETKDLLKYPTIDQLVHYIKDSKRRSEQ
T3 sequence (P0C061 1-617 T278L/A301G/S447N): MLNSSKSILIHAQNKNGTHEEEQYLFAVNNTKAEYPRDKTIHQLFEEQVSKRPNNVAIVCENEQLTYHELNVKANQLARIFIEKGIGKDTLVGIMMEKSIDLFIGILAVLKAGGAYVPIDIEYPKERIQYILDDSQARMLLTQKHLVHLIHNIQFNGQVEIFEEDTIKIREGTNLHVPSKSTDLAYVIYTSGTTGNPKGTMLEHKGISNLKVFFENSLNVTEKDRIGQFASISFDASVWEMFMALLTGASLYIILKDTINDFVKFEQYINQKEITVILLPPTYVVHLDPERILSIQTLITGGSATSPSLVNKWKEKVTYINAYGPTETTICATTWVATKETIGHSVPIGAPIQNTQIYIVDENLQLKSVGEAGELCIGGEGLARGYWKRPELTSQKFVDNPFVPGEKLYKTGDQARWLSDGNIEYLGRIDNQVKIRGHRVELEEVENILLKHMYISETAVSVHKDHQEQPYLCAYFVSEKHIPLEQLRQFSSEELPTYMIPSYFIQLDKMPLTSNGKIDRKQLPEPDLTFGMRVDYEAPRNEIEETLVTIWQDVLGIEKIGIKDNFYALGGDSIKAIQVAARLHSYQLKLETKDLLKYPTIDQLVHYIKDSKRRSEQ
T2 sequence (P0C061 1-617 I277L/T278L/A301G): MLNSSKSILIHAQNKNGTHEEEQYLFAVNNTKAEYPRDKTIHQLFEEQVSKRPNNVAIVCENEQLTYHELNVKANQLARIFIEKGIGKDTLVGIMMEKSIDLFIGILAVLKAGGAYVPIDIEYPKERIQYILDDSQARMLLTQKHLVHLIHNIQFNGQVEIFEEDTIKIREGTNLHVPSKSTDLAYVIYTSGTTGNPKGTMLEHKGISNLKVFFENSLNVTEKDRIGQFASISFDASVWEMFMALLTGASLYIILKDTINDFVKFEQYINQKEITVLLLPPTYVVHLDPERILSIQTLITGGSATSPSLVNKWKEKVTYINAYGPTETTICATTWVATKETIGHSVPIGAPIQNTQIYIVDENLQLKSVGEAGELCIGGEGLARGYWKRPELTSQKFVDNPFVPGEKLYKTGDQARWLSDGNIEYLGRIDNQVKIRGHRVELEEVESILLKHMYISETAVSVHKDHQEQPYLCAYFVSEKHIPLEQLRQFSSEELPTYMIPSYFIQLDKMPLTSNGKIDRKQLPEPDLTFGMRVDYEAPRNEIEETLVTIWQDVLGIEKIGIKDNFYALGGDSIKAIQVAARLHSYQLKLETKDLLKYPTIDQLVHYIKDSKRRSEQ

As to `CC(C)C[C@H](N)C(=O)O` [Leu, leucine], the EC50 at GECFINDER-Leu1 was 58.4 ± 24.8 µM; on GECFINDER-Leu2, 207 ± 37.2 µM; at GECFINDER-Leu3, 200 ± 7.76 µM; on GECFINDER-Leu4 it was 106 ± 24.5 µM.

(Values after publication PMC10590383, “Repurposing conformational changes in ANL superfamily enzymes to rapidly generate biosensors for organic and amino acids” (Nature Communications, 2023).)
